Data taken from paper PMC7718273 (Scientific Reports, 2020).
≈ marks a conversion by molar mass, not a printed value. Where “and” joins values, the source holds several entries; their conditions need not be identical. Equal entries are not always repeated. Where two headings read alike, the source gives them in different places.

Legend:
DPP9 = molecular target: T1, DPP9 (Homo sapiens, UniProt Q86TI2); test: DPP9 activity, fluorometric assay with AMC substrate; type: biochemical; conditions: fluorometric assay using AMC substrates
T1 construct: purchased R&D Systems 5419-SE
T1 sequence (Q86TI2 whole entry): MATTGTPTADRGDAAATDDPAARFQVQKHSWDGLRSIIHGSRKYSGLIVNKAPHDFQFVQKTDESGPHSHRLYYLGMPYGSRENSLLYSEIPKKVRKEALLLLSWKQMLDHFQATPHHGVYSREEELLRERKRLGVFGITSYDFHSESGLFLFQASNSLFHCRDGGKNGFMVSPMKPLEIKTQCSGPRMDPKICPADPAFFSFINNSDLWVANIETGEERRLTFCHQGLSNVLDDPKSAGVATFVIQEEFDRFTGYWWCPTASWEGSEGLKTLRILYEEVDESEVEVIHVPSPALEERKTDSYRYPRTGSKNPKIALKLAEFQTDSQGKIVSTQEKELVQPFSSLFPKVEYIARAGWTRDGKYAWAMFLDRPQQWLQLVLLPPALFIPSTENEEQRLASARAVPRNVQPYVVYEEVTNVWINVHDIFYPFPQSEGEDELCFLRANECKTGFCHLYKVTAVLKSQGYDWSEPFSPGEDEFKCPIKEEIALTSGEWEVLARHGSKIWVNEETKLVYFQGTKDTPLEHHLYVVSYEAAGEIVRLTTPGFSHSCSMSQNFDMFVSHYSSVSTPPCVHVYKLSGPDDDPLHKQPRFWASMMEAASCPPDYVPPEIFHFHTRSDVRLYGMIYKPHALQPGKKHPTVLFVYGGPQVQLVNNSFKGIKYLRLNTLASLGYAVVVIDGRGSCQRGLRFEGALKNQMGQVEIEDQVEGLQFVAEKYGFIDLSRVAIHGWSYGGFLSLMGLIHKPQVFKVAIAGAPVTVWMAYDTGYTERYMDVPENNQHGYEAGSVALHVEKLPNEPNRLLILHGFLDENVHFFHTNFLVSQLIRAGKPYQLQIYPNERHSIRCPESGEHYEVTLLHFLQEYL
Method: Recombinant human PREP (hPREP) (catalog no. 4308-SE), hDPP2/7 (catalog no. 3438-SE), hDPP9 (catalog no. 5419-SE), hFAP (catalog no. 3715-SE), and hDPP4 (catalog no. 9168-SE) proteins were from R&D Systems (Minneapolis, MN). Human FGF21 (catalog no. CRF159C) was from Cell Science (Newburyport, MA).
FAP enzyme activities were assayed in 20 mM Tris/HCl, 0.1 M NaCl, 1 mM EDTA (pH 8.0) in the presence of 40 μM Suc-Gly-Pro-Leu-Gly-Pro-AMC (#I-1350.0100, BACHEM, Bubendorf, Switzerland) and hFAP in a total volume of 100 µL. […] The inhibitor concentrations ranged from 100 μM to 0.03 nM, and its IC50 values were computed with commercially available curve-fitting programs such as the SigmaPlot. Other protease activities were determined in a similar manner.

Kinetic solubility = type: physicochemical; conditions: 22 °C, kinetic from dmso stock
Method: Kinetic solubility was conducted as described. […] The samples were agitated for 2 h using a plate shaker (500 rpm, 22℃). Approximately 150 µL of the resulting supernatant was transferred to a 96-well analysis plate and the calibration and test samples were analyzed by HPLC with a diode array detector (Agilent 1200 HPLC) comprising a reverse-phase Kinetex XB-C18 column (2.1 × 100 mm, 2.6 µm; Phenomenex). Mobile phases were composed of 0.1% FA in water (A) and 0.1% FA in ACN (B).

ob/ob mice [1] = test: Acute study using ob/ob mice: blood glucose and intact hFGF21; conditions: for nonfasting blood glucose level, average: 3 h after administration
Method: Blood was collected at the indicated time points. (a) Nonfasting blood glucose levels were measured at the indicated time points. […] (c) Plasma intact hFGF21 levels were measured using ELISA kit at 1, 3, 6, and 9 h. All data are the means ± S.D. *P < 0.05, **P < 0.01 and *** P < 0.001 vs. vehicle group.
Blood was promptly collected by orbital bleeding that was allowed to clot, and supernatant was collected after centrifugation at 4 °C at 3000 rpm. Serum intact FGF21 concentrations were measured by intact hFGF21 ELISA (Alpco, Keewaydin Dr, Salem, NH, catalog no. 43-FGFHU-E01)[29].

FAP = test: In vivo study using cynomolgus monkeys: plasma FAP activity; parameters: species or system cynomolgus monkey; conditions: 50 mg/kg intranasal
ob/ob mice [2] = test: Chronic study using ob/ob mice (4 weeks)
Description: (a) Nonfasting blood glucose levels in ob/ob mice. […] (g) The plasma levels of ALT (GPT), AST (GOT), TG, total cholesterol and NEFA in ob/ob mice. […] (i) Relative expression of genes related to intrahepatic lipogenic gene (GCK), fatty acid and TG synthesis genes (FASN, SREBP and APOC3, LIPIN1), β-oxidation genes (CPT1α, MCAD and PPARα) and FGF21 related genes (ATF4, CHOP, FGF21 and β-klotho) in liver and FGF21 related genes (AdipoQ and β-klotho) in white adipose tissue of ob/ob mice.
During the observation period, mice were monitored for glucose profiles and weighed. […] Under anesthesia, blood was promptly collected by orbital bleeding and then harvested. Liver tissue was then collected. Serum ALT, AST, TG, total cholesterol, and NEFA levels were assessed by KNOTUS (Incheon, Korea).

serum FAP [3] = molecular target: T2, serum FAP (Mus musculus, UniProt P97321); test: IC50 on serum FAP, mice; type: biochemical
T2 construct: from tissue; host or cells: mouse serum/plasma (ob/ob and C57BL/6J mice)
T2 sequence (P97321 24-761 limits assumed): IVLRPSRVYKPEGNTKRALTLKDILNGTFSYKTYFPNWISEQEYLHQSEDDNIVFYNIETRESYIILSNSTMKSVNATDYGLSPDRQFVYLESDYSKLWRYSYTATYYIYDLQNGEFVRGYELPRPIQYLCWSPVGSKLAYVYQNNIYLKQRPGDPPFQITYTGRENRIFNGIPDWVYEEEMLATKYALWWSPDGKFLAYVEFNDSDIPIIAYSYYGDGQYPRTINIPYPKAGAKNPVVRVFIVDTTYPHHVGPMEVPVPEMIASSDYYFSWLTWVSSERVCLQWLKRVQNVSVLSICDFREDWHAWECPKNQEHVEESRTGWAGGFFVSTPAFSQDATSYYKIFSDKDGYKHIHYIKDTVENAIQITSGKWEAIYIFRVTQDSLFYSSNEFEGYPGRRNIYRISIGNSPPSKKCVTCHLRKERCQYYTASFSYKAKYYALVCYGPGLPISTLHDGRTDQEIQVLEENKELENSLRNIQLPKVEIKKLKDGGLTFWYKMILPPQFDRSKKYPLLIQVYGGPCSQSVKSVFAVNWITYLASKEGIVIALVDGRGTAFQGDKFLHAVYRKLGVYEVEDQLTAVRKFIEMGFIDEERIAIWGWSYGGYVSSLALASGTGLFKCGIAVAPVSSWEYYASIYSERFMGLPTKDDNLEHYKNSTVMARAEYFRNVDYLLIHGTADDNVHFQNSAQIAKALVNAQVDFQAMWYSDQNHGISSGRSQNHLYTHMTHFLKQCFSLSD

serum FAP [4] = molecular target: T3, serum FAP (Homo sapiens, UniProt Q12884); test: IC50 on serum FAP, humans; type: biochemical
T3 construct: also found in human serum as a soluble form lacking the transmembrane domain; from tissue; host or cells: human serum
T3 sequence (Q12884 24-760 limits assumed): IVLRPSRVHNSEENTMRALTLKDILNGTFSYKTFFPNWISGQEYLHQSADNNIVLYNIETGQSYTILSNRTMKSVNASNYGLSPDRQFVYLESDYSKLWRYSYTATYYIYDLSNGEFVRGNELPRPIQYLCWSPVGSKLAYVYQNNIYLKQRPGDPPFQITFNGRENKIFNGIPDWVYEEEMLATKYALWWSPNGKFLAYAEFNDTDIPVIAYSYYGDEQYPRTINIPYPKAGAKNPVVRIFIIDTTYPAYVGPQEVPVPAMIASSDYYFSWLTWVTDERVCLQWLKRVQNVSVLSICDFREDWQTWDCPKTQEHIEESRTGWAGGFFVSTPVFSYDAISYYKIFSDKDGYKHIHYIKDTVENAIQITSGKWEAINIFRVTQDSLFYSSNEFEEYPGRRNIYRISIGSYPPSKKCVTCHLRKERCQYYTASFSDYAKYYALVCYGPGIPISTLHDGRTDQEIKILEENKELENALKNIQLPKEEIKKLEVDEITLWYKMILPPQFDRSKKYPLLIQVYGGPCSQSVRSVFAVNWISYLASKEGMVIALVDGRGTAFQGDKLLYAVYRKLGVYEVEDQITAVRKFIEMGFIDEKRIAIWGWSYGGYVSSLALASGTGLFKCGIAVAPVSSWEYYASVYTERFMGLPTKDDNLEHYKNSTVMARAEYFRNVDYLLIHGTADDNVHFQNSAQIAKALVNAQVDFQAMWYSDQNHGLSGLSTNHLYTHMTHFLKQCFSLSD

[5] = Pharmacokinetic study in mice; type: in vivo, C57BL/6J mice; conditions: mouse, plasma
Method: Mice were administered with BR103354 either p.o. […] (2 mg/kg). […] These samples were then centrifuged at 13,000 rpm for 10 min to obtain plasma. […] Samples were analyzed on an API 4500 Qtrap LC‐MS/MS system (Applied Biosystems/MDS Sciex, Toronto, Canada) coupled with Agilent 1200 HPLC (Agilent Technologies, Santa Clara, CA). Plasma concentration–time data were analyzed by non-compartmental method using the nonlinear least-squares regression program WinNonlin (Pharsight, Mountain View, CA).

[6] = Plasma protein binding, human; type: in vitro ADME; conditions: human (H), read-out: Plasma protein binding (% bound) (converted)
Method: Protein binding was conducted as described. Compound solutions prepared in DMSO were diluted in phosphate buffer (final concentration: 1 µg/mL), and added into human plasma (total volume: 1 mL). Aliquots were then transferred in duplicate to: (i) a final concentration plate that was immediately quenched with 23.6 ng/mL internal standard (IS, chlorpropamide) in ACN, (ii) a degradation control, which was placed in a water bath at 37℃ for 4 h, and (iii) ultracentrifuge tubes, which were centrifuged for 5 min at 4℃ (14,000 rpm). All reactions were stopped by the addition of ACN containing 23.6 ng/mL chlorpropamide. The samples were subjected to LC–MS/MS analysis.

[7] = male, C57BL/6J, po, p.o. 1 mg/kg
[8] = male, C57BL/6J, po, p.o. 5 mg/kg
[9] = male, C57BL/6J, po, p.o. 10 mg/kg
[10] = male, C57BL/6J, po, p.o. 100 mg/kg
[11] = male, C57BL/6J, po, p.o. 200 mg/kg

N#Cc1ccc(Cc2nc(C(=O)NCC(=O)N3CC(F)(F)C[C@H]3C#N)cs2)cc1 [BR103354, (S)-N-(2-(2-cyano-4,4-difluoropyrrolidin-1-yl)-2-oxoethyl)-2-(4-cyanobenzyl)thiazole-4-carboxamide]
IC50 (DPP9): 5040 nM | solubility kinetic at 2 h (Kinetic solubility; pH 3.5, aqueous buffer): 81 µg/mL (≈ 195 µM) | solubility kinetic at 2 h (Kinetic solubility; simulated gastric fluid, pH 1.0): 79 µg/mL (≈ 190 µM) | solubility kinetic at 2 h (Kinetic solubility; phosphate buffer, pH 7.4, aqueous buffer): 78 µg/mL (≈ 188 µM) | nonfasting blood glucose level, average (ob/ob mice [1]; 20 mg/kg p.o. + hFGF21 0.1 mg/kg i.p.): 178 mg/dL | nonfasting blood glucose level, average (ob/ob mice [1]; 50 mg/kg p.o. + hFGF21 0.1 mg/kg i.p.): 154 mg/dL | decrease of blood glucose AUC (ob/ob mice [1]; 20 or 50 mg/kg p.o. + hFGF21 0.1 mg/kg i.p.): 40–45% | levels of intact FGF21 in plasma (ob/ob mice [1]; co-administered with hFGF21 0.1 mg/kg, until 3 h): increased levels of intact FGF21 in plasma until 3 h | levels of intact FGF21 (ob/ob mice [1]; co-administered with hFGF21, after 6 h of administration): lower than 10 ng/mL | inhibition of FAP activity, maximal (FAP; cynomolgus monkeys (n = 3), range of individual animals): 65–83% | time of maximal effect on FAP activity and intact FGF21 (FAP; cynomolgus monkeys, 50 mg/kg): 1 h and 2 h | glucose tolerance (oral glucose tolerance test) (ob/ob mice [2]; 50 mg/kg): improved glucose tolerance significantly | FGF21, ATF4 and CHOP mRNA expression in liver (ob/ob mice [2]; 4 weeks): increased | liver TG content (Oil red O staining) (ob/ob mice [2]; 4 weeks): decreased | body weight between treatments (ob/ob mice [2]; 4 weeks (data not shown)): no change | ERK phosphorylation in adipose tissues (ob/ob mice [2]; 4 weeks, vs vehicle): increased | Serum alanine aminotransferase (ALT) (ob/ob mice [2]; 4 weeks, vs vehicle): significantly reduced | aspartate aminotransferase (AST) (ob/ob mice [2]; 4 weeks, vs vehicle): significantly reduced | non-esterified free fatty acid (NEFA) levels (ob/ob mice [2]; 4 weeks, vs vehicle): unaltered | serum TG (ob/ob mice [2]; 4 weeks, vs vehicle): unaltered | total cholesterol (ob/ob mice [2]; 4 weeks, vs vehicle): significantly reduced | nonfasting blood glucose (ob/ob mice [2]; 20 and 50 mg/kg once daily p.o., from 2 weeks, vs vehicle (P < 0.01)): significantly decreased | increase of total form of serum FGF21 (ob/ob mice [2]; 20 and 50 mg/kg, week 4): approximately 1.4 fold | adiponectin level in white adipose tissues (ob/ob mice [2]; after 4 weeks of treatment): increased | fasting blood glucose levels (ob/ob mice [2]; after 4 weeks of treatment): significantly reduced | fasting body weights (ob/ob mice [2]; after 4 weeks of treatment): significantly reduced | insulin levels (ob/ob mice [2]; after 4 weeks of treatment): significantly reduced | liver weights (ob/ob mice [2]; after 4 weeks of treatment): significantly reduced | IC50 (serum FAP [3]; mice, monkeys and humans together, read-out: serum FAP IC50 values, all three species): 27 to 31 nM | IC50 (serum FAP [3]; read-out: Serum FAP IC50 (nM): Mouse): 31 nM | IC50 (serum FAP [4]): 29 nM | half-life ([5]; male, C57BL/6J, po, mice, all doses, read-out: half-life (T1/2), range over doses): 1.2 to 4 h | AUC(0-t) [5, 7]: 3700 ng·h/mL | Cmax [5, 7]: 2300 ng/mL | Tmax [5, 7]: 0.5 h | half-life ([5]; male, C57BL/6J, po, p.o. 1 mg/kg, read-out: T1/2 (converted)): 1.2 h | AUC(0-t) [5, 8]: 10800 ng·h/mL | Cmax [5, 8]: 7200 ng/mL | Tmax [5, 8]: 0.5 h | half-life ([5]; male, C57BL/6J, po, p.o. 5 mg/kg, read-out: T1/2 (converted)): 1.1 h | AUC(0-t) [5, 9]: 41100 ng·h/mL | Cmax [5, 9]: 19200 ng/mL | Tmax [5, 9]: 0.5 h | half-life ([5]; male, C57BL/6J, po, p.o. 10 mg/kg, read-out: T1/2 (converted)): 1.2 h | AUC(0-t) [5, 10]: 17000 ng·h/mL | Cmax [5, 10]: 66000 ng/mL | Tmax [5, 10]: 1 h | half-life ([5]; male, C57BL/6J, po, p.o. 100 mg/kg, read-out: T1/2 (converted)): 4 h | AUC(0-t) [5, 11]: 29200 ng·h/mL | Cmax [5, 11]: 122000 ng/mL | Tmax [5, 11]: 1 h | half-life ([5]; male, C57BL/6J, po, p.o. 200 mg/kg, read-out: T1/2 (converted)): 3.8 h | bioavailability ([5]; male, C57BL/6J, oral, i.v. 2 mg/kg): 48.4% | Tmax ([5]; summary in discussion, species and dose not stated): 1 h | half-life ([5]; summary in discussion, species and dose not stated, read-out: T1/2 (converted)): 1.2 h | fraction unbound at 1 µg/mL [6]: 0.33
